From US20200129459A1, “THE NEW USE OF 2-[(3Z)-6-FLUORO-2-METHYL-3-[(4-[…]) METHYLIDENE]INDEN-1 -YL] ACETIC ACID” (WYZSZA SZKOLA MEDYCZNA W BIALYMSTOKU, priority 2017, published 2020)

Tests used:
Assay type in all cases: in vivo, Wistar rats
[1] = test system: rats with alloxan-induced diabetes; assay: Healing of excision wounds in rats with alloxan-induced diabetes, solutions applied on the wound; conditions: diabetic rats, 200 μl/daily on wound surface until full healing
Procedure: Use of 2-[(3Z)-6-fluoro-2-methyl-3-[(4-methylsulfinylphenyl)methylidene]inden-1-yl] acetic acid (sulindac) for the treatment of difficult healing wounds in rats with alloxan-induced diabetes.
63 adult male Wistar rats were used in the experiment. All animals were kept under observation for two weeks before the onset of the experiment to exclude any intercurrent infection. Animals were housed in standard plastic cages by 5 animals per cage. Rats were kept in air-conditioned room at 22±2° C., humidity of 60-70% and a natural light (12/12 in the day/night cycle). All rats were fed ad libitum with standard laboratory rats chow.
Diabetes mellitus was induced with alloxan, a highly toxic compound that destroyed the β-cells of the pancreas Langerhans islets, by single intraperitoneally injection at dose 170 mg per kg of body weight in 0.1 M citrate-phosphate buffer, pH 4.0 after 24-hours fasting. After alloxan administration drinking water was replaced by 2 per cent sucrose solution in tap water on 10 days period.
Rats were identified as diabetic on the basis of blood glucose levels (higher than 16 mmol/l after 12 h starvation at 10 days post-alloxan treatment; total 31 rats were diabetic). […]
Every day wounds were photographed by digital camera. Wound macroscopic parameters were quantified using the ImageJ software (NIH, USA).

sorbitol = assay: Sorbitol in subcutaneous muscle subjacent to the wound; conditions: diabetic rats, wet muscle weight
Procedure: Each muscle sample was cut into small pieces and ground in the presence of liquid nitrogen until it was powdered. The weight of the powered muscle tissue was determined, after which 1 mL of ice-cold 0.5 M perchloric acid was added and the samples were sonicated. The sonicated tissue was centrifuged for 5 min to remove precipitate. The resulting supernatant was neutralized by adding a solution 0.5 M potassium carbonate. The solution was then vortexed for 45 seconds, then centrifuged for 5 min at 5000 g and precipitate was discarded. The samples were stored in deep freezer at −86° C. until sorbitol determination.
The neutralized muscle extracts were vortexed and 10 μL aliquots along with sorbitol standards were added to a 96 well plate. Sorbitol dehydrogenase reaction was started by adding to each well 10 μL of a reaction mix containing 20 μg/μL sorbitol dehydrogenase, 2 mM NAD in 50 mM glycine-NaOH buffer pH 9.7. Following incubation with sorbitol dehydrogenase for 30 min at room temperature, 100 μL of a solution containing 65 μg/mL diaphorase, 10 uM FMN, 20 μM resazurin in 50 mM glycine-NaOH, pH 9.7 was added and the fluorescence (ex/em at 544/590 nm) was determined on a fluorescent plate reader for a period of an hour. Sorbitol content was expressed in nmol/mg of wet muscle weight.

aldose reductase = molecular target: T1, aldose reductase (Rattus norvegicus, UniProt P07943); assay: Rat subcutaneous muscle aldose reductase activity; conditions: subcutaneous muscle subjacent wound, diabetic rats
T1 construct: Tissue samples were homogenized in 135 mM Na, K-phosphate buffer (pH 7.0) containing 5 mM 2-mercaptoethanol; from tissue; host or cells: rat subcutaneous muscle subjacent to the wound (supernatant of the homogenate)
Procedure: Tissue samples were homogenized in 135 mM Na, K-phosphate buffer (pH 7.0) containing 5 mM 2-mercaptoethanol. The homogenate was centrifuged at 12,000 g for 30 min and the supernatant was used in the following steps. Aldose reductase activity was determined according to the classic method with glyceraldehyde as substrate. The incubation mixture contained 135 mM Na, K-phosphate buffer (pH 7.0), 100 mM lithium sulfate, 0.03 mM NADPH, 0.04 mM D,L-glyceraldehyde (monomerized at 80 deg C. for 10 min and cooled to RT) as a substrate and the sample solution (50 μL). The reaction was initiated by adding NADPH at 37 C and stopped by adding 0.5 M HCl, followed by the addition of 6 M NaOH containing 10 mM imidazole. The solution was heated at 60 C for 10 min to convert NADP to a fluorescent product. The fluorescence was measured using a spectrofluorometer with ex/em 360/460 nm. The assay was performed in duplicates. Protein content was determined using BCA assay.

[2] = test system: rats with alloxan-induced diabetes; assay: Histology of healed wound skin; conditions: diabetic rats, skin excised next day after full epithelization; hematoxylin-eosin and van Gison staining
Procedure: Tissue specimens next day after full epithelization were excised in depth to include underlying connective tissues above the external fascia of the dorsal muscles. The excised skin was fixed in paraformaldehyde (4% in PBS, 0.01 M, pH 7.4), dehydrated in graded alcohol solutions, embedded in paraffin blocks and sectioned at 5 μm-thick serial sections using microtome.
Preparations from the collected skin fragments were prepared in a standard manner and stained with the classic method using hematoxylin and eosin, and by the van Gison method using picric acid and acid fuchsine. The preparations were analyzed using a Leica DM 1000 light microscope equipped with a Leica DFC300 FX digital camera.

[3] = mediana (25th; 75th percentile)

CC1=C(CC(=O)O)c2cc(F)ccc2/C1=C\c1ccc([S+](C)[O-])cc1 (stereo not shown) [Sul, 2-[(3Z)-6-fluoro-2-methyl-3-[(4-methylsulfinylphenyl)methylidene]inden-1-yl] acetic acid]
Full healing ([1]; M±m (SEM)): 23.7 ± 0.65 days
Full healing [1, 3]: 24.0(22.0; 25.0) ^Δ days
Sorbitol levels (sorbitol; M±m (SEM)): 0.057 ± 0.005 nmol/mg
Sorbitol levels (sorbitol; [3]): 0.053(0.048; 0.075) ^ΔΔΔ nmol/mg
AR (aldose reductase; M±m (SEM)): 0.64 ± 0.04 nmole NADPH/min/mg protein
AR (aldose reductase; [3]): 0.677(0.63; 0.69) ^ΔΔΔ nmole NADPH/min/mg protein
Histology of the area of damage [2]: the skin was rebuilt in the form of a scar tissue made of modified connective tissue
